Results as given in patent publication US20230357179A1, “RAF KINASE INHIBITORS AND METHODS OF USE THEREOF” (Deciphera Pharmaceuticals, LLC, priority 2021, published 2023).

What was measured:
B-Raf kinase = target: T1, B-Raf kinase (Homo sapiens, UniProt P15056); assay: Biochemical assay for B-Raf.1 (coupled pyruvate kinase/lactate dehydrogenase); settings: read-out: BRAF.1 IC50
T1 construct: GST (N); purchased Sigma
How it was run: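 NADH oxidation followed at 340 nm in a pyruvate kinase/lactate dehydrogenase-coupled assay with 0.13 nM B-Raf, 30.1 nM MEK substrate, 1 mM ATP, pH 7.5 Tris buffer, 1% DMSO. Monitored 6 h at 30 °C; rate taken from 4–5 h. IC50 from four-parameter sigmoidal fit.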

C-Raf kinase = target: T2, C-Raf kinase (Homo sapiens, UniProt P04049, Y340D/Y341D); assay: Biochemical assay for C-Raf.1 (coupled pyruvate kinase/lactate dehydrogenase); settings: read-out: CRAF.1 IC50
T2 construct: Y340D,; GST (N); purchased Sigma
T2 sequence (P04049 307-648 Y340D/Y341D): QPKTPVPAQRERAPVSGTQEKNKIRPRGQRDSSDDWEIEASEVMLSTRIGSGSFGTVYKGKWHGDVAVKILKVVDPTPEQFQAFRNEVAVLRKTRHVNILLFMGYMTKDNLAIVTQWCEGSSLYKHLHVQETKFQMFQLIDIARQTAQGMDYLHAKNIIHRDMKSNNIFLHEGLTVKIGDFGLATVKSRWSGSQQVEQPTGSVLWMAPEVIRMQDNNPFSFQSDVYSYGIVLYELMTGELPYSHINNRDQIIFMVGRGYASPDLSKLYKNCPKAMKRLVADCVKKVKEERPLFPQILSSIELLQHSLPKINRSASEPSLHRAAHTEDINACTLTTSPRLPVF
How it was run: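 C-Raf (0.43 nM) with MEK 30.1 nM and 1 mM ATP in Tris pH 7.5/MgCl2 buffer, activity coupled via PK/LDH to NADH oxidation (A340), 6 h at 30° C. Rates from 4–5 h window converted to % inhibition versus controls; IC50 by four-parameter fit, 1% DMSO.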

B-Raf (V600E) kinase = target: T3, B-Raf (V600E) kinase (Homo sapiens, UniProt P15056, V600E); assay: Biochemical assay for B-Raf (V600E).1 (coupled pyruvate kinase/lactate dehydrogenase); settings: read-out: BRAF V600E.1 IC50
T3 construct: B-Raf (V600E) residues 416-766 with a; GST (N); purchased SignalChem
T3 sequence (P15056 416-766 V600E): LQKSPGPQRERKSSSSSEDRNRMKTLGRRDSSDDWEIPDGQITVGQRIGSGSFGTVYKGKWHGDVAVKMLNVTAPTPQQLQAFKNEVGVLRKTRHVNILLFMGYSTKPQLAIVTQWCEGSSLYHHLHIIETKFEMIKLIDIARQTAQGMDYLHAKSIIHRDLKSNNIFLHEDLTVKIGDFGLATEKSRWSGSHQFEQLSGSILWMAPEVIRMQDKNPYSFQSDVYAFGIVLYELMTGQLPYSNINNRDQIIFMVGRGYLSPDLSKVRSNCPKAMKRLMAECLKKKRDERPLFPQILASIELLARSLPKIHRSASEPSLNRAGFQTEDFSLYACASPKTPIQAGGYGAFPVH
How it was run: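 0.03 nM B-Raf(V600E) phosphorylating 30.1 nM MEK at 1 mM ATP, pH 7.5, coupled to PK/LDH, with NADH oxidation followed at 340 nm for 6 h at 30 °C. Rates taken from the 3-4 h window. IC50 from a four-parameter fit of percent inhibition.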

H2405 cells = assay: H2405 cell proliferation assay (1), resazurin, 96-well; assay type: cell-based; settings: Homo sapiens, NCI-H2405, inhibition of cell proliferation
Protocol: H2405 Cell Proliferation Assay (1)
H2405 cells (catalog #CRL-5944) are obtained from the American Type Culture Collect (ATTC, Manassas, VA). Briefly, cells were grown in RPMI 1640 supplemented with 5% characterized fetal bovine serum (Invitrogen, Carlsbad, CA) and 1% Penicillin/Streptomycin/L-Glutamine at 37° C., 5% CO2, and 95% humidity. Cells are expanded until reaching 70-95% confluency at which point they are subcultured or harvested for assay use. A serial dilution of test compound is dispensed into a 96-well black clear bottom plate in triplicate. Three thousand cells are added per well in 200 μL complete growth medium in the 96-well plate. Plates are incubated for 67-72 hours at 37° C., 5% CO2, and 95% humidity. At the end of the incubation, 40 μL of a 440 μM solution of resazurin (Sigma, St. Louis, MO) in PBS is added to each well of the plate and plates are incubated for an additional 5-6 hours at 37° C., 5% CO2, and 95% humidity. Plates are read on a Synergy2 or equivalent reader (Biotek, Winooski VT) using an excitation of 540 nm and an emission of 600 nm. Data is analyzed using Prism software (GraphPad, San Diego, CA) to calculate IC50 values.

T1 sequence (P15056 416-766): as the sequence (P15056 416-766 V600E) above, with E185V counted along it

Structure (SMILES): Cc1cc(F)c(NC(=O)NCCC2(C)CC2)cc1-c1cnnc(-c2ccnc(NC(=O)C3CC3)c2)c1 [Example 168]
- IC50 (B-Raf kinase): ≤ 100 nM
- IC50 (C-Raf kinase): ≤ 100 nM
- IC50 (B-Raf (V600E) kinase): ≤ 100 nM
- IC50 (H2405 cells): ≤ 100 nM

Structure (SMILES): Cc1ncc(NC(=O)NCCC2(C)CC2)cc1-c1ccnc(-c2ccnc(NC(=O)C3(C#N)CC3)c2)c1 [Example 169]
- IC50 (B-Raf kinase): ≤ 100 nM
- IC50 (C-Raf kinase): ≤ 100 nM
- IC50 (B-Raf (V600E) kinase): ≤ 100 nM
- IC50 (H2405 cells): 100 to 500 nM

Structure (SMILES): COC(=O)Nc1cc(-c2cccc(-c3cc(NC(=O)NCCC4(C)CC4)cnc3C)c2)ncn1 [Example 170]
- IC50 (B-Raf kinase): ≤ 100 nM
- IC50 (C-Raf kinase): ≤ 100 nM
- IC50 (B-Raf (V600E) kinase): ≤ 100 nM
- IC50 (H2405 cells): 100 to 500 nM

Structure (SMILES): COC(=O)Nc1cc(-c2ccnc(-c3cc(NC(=O)NCCC(C)(C)OC)c(F)cc3C)n2)ccn1 [Example 171]
- IC50 (B-Raf kinase): ≤ 100 nM
- IC50 (C-Raf kinase): ≤ 100 nM
- IC50 (B-Raf (V600E) kinase): ≤ 100 nM
- IC50 (H2405 cells): 1000 to 10000 nM

Structure (SMILES): Cc1ncc(NC(=O)NCCN2CCC2)cc1-c1cc(OCCO)nc(-c2ccnc(NC(=O)C3CC3)c2)c1 [Example 172]
- IC50 (B-Raf kinase): > 1000 nM
- IC50 (C-Raf kinase): > 1000 nM
- IC50 (B-Raf (V600E) kinase): 100 to 500 nM
- IC50 (H2405 cells): 1000 to 10000 nM
